Measured values as given in patent US20230084899A1, “COMBINATION OF AN AHR-INHIBITOR AND AN PD1-INHIBITOR ANTIBODY AND ITS USE IN THE TREATMENT OF CANCER” (Bayer Aktiengesellschaft, priority 2019, published 2023).
Entries after “also recorded” stand apart in the source; their conditions may differ.

Experiments:
tumor cell proliferation = test: Anti-proliferative effect of the combination (tumor cell proliferation); format: cell-based
[1] = system: human T cell/DC co-cultures; test: Mixed lymphocyte reaction: IL-2 in supernatants of matured DC / T cell co-culture; format: cell-based
Protocol: Whole blood samples from healthy donors were collected and PBMCs were isolated using density gradient centrifugation for 15 min at 800×g at room temperature with Biocoll separation solution (density […]; Biochrom, #L6115). The supernatants were discarded and the PBMCs were poured into 50 ml tubes, washed with PBS without Ca^+/Mg^+, counted and resuspended in MACS separation buffer (Miltenyi Biotec). The monocytes were isolated from PBMCs using the Monocyte Isolation Kit II (Miltenyi Biotec, Cat #130-091-153) according to manufacturer's instructions. On the day of co-culture, T cells were isolated from PBMC preparations obtained from whole blood of different donors using the Pan T Cell Isolation Kit (Auto MACS Pro, Cat #130-096-535).
Monocytes were differentiated into monocyte-derived dendritic cells (moDCs) using 100 ng/ml GM-CSF (R&D Systems, Cat #215-GM) and 100 ng/ml rhIL4 (R&D Systems, Cat #204-IL) for 6 days at 37° C., 5% CO2. To produce mature DCs, moDCs were further matured for 24 h with IFNγ (R&D Systems, Cat #285-IF) and lipopolysaccharide (LPS) from Escherichia coli O127: B8 (Sigma, Cat #L4516).
For the co-culture assay, matured DCs and T cells from different donors were used. The cells were seeded in 96-well plates (Costar, Cat #3585) at 1×10^4 cells/well for matured DCs and 5×10^4 cells/well for T cells. A serial dilution of component A (3× dilution steps) in combination with anti-programmed cell death 1 antibody (as component B: aPD-1; 1 μg/ml pembrolizumab or 3 μg/ml nivolumab) or respective concentrations of hIgG4 (isotype control TPP10747, PPB11084) was added and the cells were incubated for 3 days at 37° C., 5% CO2.
IL-2 cytokine levels were measured in aliquots of supernatants using the Human IL-2 Tissue Culture kit (Meso Scale Discovery, Cat #K151AHB-4).

Structure (SMILES) | inhibiting tumor cell proliferation (tumor cell proliferation; in combination with nivolumab) | anti-proliferative effect / inhibiting tumor cell proliferation (tumor cell proliferation; in combination with pembrolizumab) | T cell activity (observed by IL-2 production) ([1]; alone and in combination with PD1 antibodies) | IL-2 production from T cells ([1]; component A alone (component A+hIgG4 isotype control), serial dilution, 3 days co-culture) | IL-2 levels, combination compared to aPD-1 or component A alone ([1]; component A serial dilution + 1 μg/ml pembrolizumab, 3 days co-culture (FIG. 1)) | IL-2 levels, combination compared to aPD-1 or component A alone ([1]; component A serial dilution + 3 μg/ml nivolumab, 3 days co-culture (FIG. 2))
C[C@@H](CO)NC(=O)c1cc(-c2ccc(Cl)cc2)nn(-c2cnn(C)c2)c1=O [6-(4-Chlorophenyl)-N-[(2S)-1-hydroxypropan-2-yl]-2-(1-methyl-1H-pyrazol-4-yl)-3-oxo-2,3-dihydropyridazine-4-carboxamide] | synergistic effects | very strong synergy; also recorded: synergistic effects |  |  |  | 
C[C@@H](CO)NC(=O)c1cc(-c2ccc(Cl)cc2)nn(-c2cnn(C)c2)c1=O [component A, 6-(4-Chlorophenyl)-N-[(2S)-1-hydroxypropan-2-yl]-2-(1-methyl-1H-pyrazol-4-yl)-3-oxo-2,3-dihydropyridazine-4-carboxamide] |  |  | enhances T cell activity | dose-dependent response | higher IL-2 levels | higher IL-2 levels
